Assay: Whitening of extracted teeth, CIE whiteness index by image analysis
Protocol: Extracted caries-free teeth collected from dental hospitals were briefly brushed to remove any skin tissue attached. The teeth were then sterilized by autoclaving at 121° C. for 25 mins. All teeth were stored in an airtight plastic container containing a solution of Phosphate Buffered Saline (PBS) with a few crystals of thymol as an antibacterial agent until required for use. Twenty four hours before the study, each tooth was glued onto a numbered glass microscope slide. A pellicle was formed on the teeth by soaking in sterilised artificial saliva with the composition set out in Table 1.
After the 24 hr period of pellicle formation, the teeth were then brushed with an Oral B Plaque remover electric toothbrush for 2 mins, with a standard fluoride toothpaste, the composition of which is set out in Table 2:
Excess toothpaste was removed by briefly rinsing each tooth with deionised water. The teeth were returned to a fresh aliquot of artificial saliva and then measured. The measured whiteness index (determined by image analysis as described below) was taken as the baseline against which subsequent measurements were compared.
[…] Teeth were returned to a fresh aliquot of artificial saliva and a Post-Bleach measurement taken.
FWA was applied to the teeth by immersion in a 500 ppm FWA solution (50 mg FWA in 100 ml deionised water stirred for 30 minutes) for 1 hr. The teeth were returned to a fresh aliquot of artificial saliva and a post-FWA measurement taken.
Each tooth was imaged using a Kodak DCS 410 camera, which was mounted 10 cm above and perpendicular to the specimen, using aperture F11 and a shutter speed of 1/10 second. The standardised lighting source comprised two UV tubes and two 6500K ‘daylight’ tubes. Each image was transferred to Adobe PhotoShop software. For each image, an 8 mm^2 area was analysed and an average Adobe L,a,b reading obtained using the software. All L,a,b values were converted to CIE L*,a*,b* and then to the CIE whiteness index W, using the equation: W=Y+800(xn−x)+1700(yn−y) where Y is the Y-tristimulus value of the specimen, x and y, and xn and yn are the chromaticity coordinates for the specimen and for the perfect diffuser for the CIE 1931 2° Standard Observer, respectively. Results

Molecule: OO [Example H2O2, hydrogen peroxide]
- average percentage increase in whiteness index (H2O2 alone: immersion in 15% hydrogen peroxide solution for 1 hr, vs baseline, six groups of three teeth): 17%
- change in whiteness index (in words) (treatment with 15% H2O2, each group of teeth, vs baseline): increase in whiteness index

Molecule: O=S(=O)(O)c1ccccc1C=Cc1ccc(-c2ccc(C=Cc3ccccc3S(=O)(=O)O)cc2)cc1 [FWA, 4,4′-bis(2-sulfostyryl)biphenyl]
- change in whiteness index (in words) compared with treatment with H2O2 alone (FWA treatment after 15% H2O2 bleaching): further increase in whiteness
- average percentage increase in whiteness index (combined treatment using chlorine dioxide (sodium chlorite bleach) and FWA (Tinopal CBS-X), vs baseline): 41%
- average percentage increase in whiteness index (combined treatment: 15% H2O2 1 hr, then 500 ppm FWA solution 1 hr, vs baseline, six groups of three teeth): 24%

Molecule: sodium chlorite
- average percentage increase in whiteness index (bleach alone: sodium chlorite (generating chlorine dioxide in use) in place of H2O2, vs baseline): 8%
